Consider 1 molecule from patent US20170333391A1, “METHOD FOR DELAYING THE ONSET OF PULMONARY FIBROSIS OR TREATING PULMONARY FIBROSIS” (EVERFRONT BIOTECH INC., priority 2016, published 2017).

Assay [1] deals with type I collagen. Kind of assay: Type I collagen expression in TGF-β1-induced NHLF, western blotting (2-2). The class given is cell-based, human. The settings on record: TGF-β1-only control group = 1. As for the experimental part: Normal Human lung fibroblasts (NHLF) were seeded into 6 cm culture dishes at a density of 2×10^5 cells/dish, comprising a control group and six experimental groups (7 dishes in total). The cells were cultured until the next day, and then the mediums were removed. Each group was respectively treated under the following conditions to conduct follow-up experiments: • (1) Positive control group: cells were cultured in a FGM-2 medium containing 1% serum and TGF-β1 (5 ng/ml) for 36 hours; • (2) Group I: cells were firstly cultured in a FGM-2 medium containing 1% serum and TGF-β1 (5 ng/ml) for 12 hours, and then compound (1) was added into the medium to provide a final concentration of 15 μg/ml; thereafter, the cells were cultured for another 24 hours; • (3) Group II: cells were firstly cultured in a FGM-2 medium containing 1% serum and TGF-β1 (5 ng/ml) for 12 hours, and then compound (1) was added into the medium to provide a final concentration of 25 μg/ml; thereafter, the cells were cultured for another 24 hours; • (4) Group III: cells were firstly cultured in a FGM-2 medium containing 1% serum and TGF-β1 (5 ng/ml) for 12 hours, and then compound (1) was added into the medium to provide a final concentration of 35 μg/ml; thereafter, the cells were cultured for another 24 hours; • (5) Group IV: cells were firstly cultured in a FGM-2 medium containing 1% serum and TGF-β1 (5 ng/ml) for 12 hours, and then the Pirfenidone was added into the medium to provide a final concentration of 100 μg/ml; thereafter, the cells were cultured for another 24 hours; • (6) Group V: cells were firstly cultured in a FGM-2 medium containing 1% serum and TGF-β1 (5 ng/ml) for 12 hours, and then the Pirfenidone was added into the medium to provide a final concentration of 250 μg/ml; thereafter, the cells were cultured for another 24 hours; and • (7) Group VI: cells were firstly cultured in a FGM-2 medium containing 1% serum and TGF-β1 (5 ng/ml) for 12 hours, and then the Pirfenidone was added into the medium to provide a final concentration of 500 μg/ml; thereafter, the cells were cultured for another 24 hours.
Thereafter, the proteins in the cells of each group were extracted, and the expressions of type I collagen, BMP-7 protein and TGF-β protein in the NHLF cells of each group were measured with western blotting. The results of the control group served as the basis for calculating the relative expression levels of the other groups.
For orientation: A western blot detects proteins with antibodies after separation by electrophoresis.

Assay [2] has as its system type I collagen. Briefly: Type I collagen expression in transfected NHLF (pcDNA3.1 empty vector or pcDNA3.1-SOX2), western blotting (2-3). The class given is cell-based, human. Conditions: TGF-β1 5 ng/ml 12 h. As for the experimental part: The pcDNA3.1 empty vector and the pcDNA3.1-SOX2 plasmid (i.e., pcDNA3.1 vector containing SOX2 gene) were respectively transfected into Normal Human lung fibroblasts (NHLF) by the Fugene HD cell transfection reagent. The cells were screened to obtain NHLFs containing the pcDNA3.1 empty vector or the pcDNA3.1-SOX2 plasmid.
NHLFs containing the pcDNA3.1 empty vector were then seeded into 6 cm culture dishes at a density of 2×10^5 cells/dish, comprising a control group and three experimental groups (4 dishes in total). The cells were cultured until the next day, and then the mediums were removed. Each group was respectively treated under the following conditions to conduct follow-up experiments: • (1) Control group I: cells were cultured in a FGM-2 medium containing 1% serum for 36 hours; • (2) Group A: cells were cultured in a FGM-2 medium containing 1% serum and TGF-β1 (5 ng/ml) for 36 hours; • (3) Group B: cells were firstly cultured in a FGM-2 medium containing 1% serum and TGF-β1 (5 ng/ml) for 12 hours, and then compound (1) was added into the medium to provide a final concentration of 15 μg/ml; thereafter, the cells were cultured for another 24 hours; and • (4) Group C: cells were firstly cultured in a FGM-2 medium containing 1% serum and TGF-β1 (5 ng/ml) for 12 hours, and then compound (1) was added into the medium to provide a final concentration of 30 μg/ml; thereafter, the cells were cultured for another 24 hours.
In another aspect, NHLFs containing the pcDNA3.1-SOX2 plasmid were seeded into the 6 cm culture dishes at a density of 2×10^5 cells/dish, comprising a control group and three experimental groups (4 dishes in total). The cells were cultured until the next day, and then the mediums were removed. Each group was respectively treated under the following conditions to conduct follow-up experiments: • (1) Control group II: cells were cultured in a FGM-2 medium containing 1% serum for 36 hours; • (2) Group D: cells were cultured in a FGM-2 medium containing 1% serum and TGF-β1 (5 ng/ml) for 36 hours; • (3) Group E: cells were firstly cultured in a FGM-2 medium containing 1% serum and TGF-β1 (5 ng/ml) for 12 hours, and then the compound (1) was added into the medium to provide a final concentration of 15 μg/ml; thereafter, the cells were cultured for another 24 hours; and • (4) Group F: cells were firstly cultured in a FGM-2 medium containing 1% serum and TGF-β1 (5 ng/ml) for 12 hours, and then the compound (1) was added into the medium to provide a final concentration of 30 μg/ml; thereafter, the cells were cultured for another 24 hours.
Thereafter, the proteins in the cells of each group were extracted, and the expressions of Sox2 protein, TGF-β protein and type I collagen in the NHLF cells of each group were measured with western blotting. […]

As to `CCCC=C1OC(=O)c2ccccc21` [compound (1)], the “Relative expression level (fold) Type I collagen” value in assay [1] (Group I: TGF-β1 5 ng/ml 12 h, then compound (1) 15 μg/ml 24 h) was found to be 0.79 fold; in assay [1] (Group II: TGF-β1 5 ng/ml 12 h, then compound (1) 25 μg/ml 24 h) it was 0.30 fold; in assay [1] (Group III: TGF-β1 5 ng/ml 12 h, then compound (1) 35 μg/ml 24 h) it was 0.51 fold; in assay [2] (Group B: NHLF with pcDNA3.1 empty vector, then compound (1) 15 μg/ml 24 h, control group I = 1, TGF-β1-only group A = 5.83) it was 3.74 fold; in assay [2] (Group C: NHLF with pcDNA3.1 empty vector, then compound (1) 30 μg/ml 24 h, control group I = 1, TGF-β1-only group A = 5.83) it was 0.88 fold; in assay [2] (Group E: NHLF with pcDNA3.1-SOX2 plasmid, then compound (1) 15 μg/ml 24 h, control group II = 1, TGF-β1-only group D = 1.57), 1.30 fold. In assay [2] (Group F: NHLF with pcDNA3.1-SOX2 plasmid, then compound (1) 30 μg/ml 24 h, control group II = 1, TGF-β1-only group D = 1.57), the “Relative expression level (fold) Type I collagen” value is 1.29 fold.
